What was measured:
D39 ΔlytA = assay: Microtiter plate lysis assay, strain D39 ΔlytA; type: cell-based, S. pneumoniae; conditions: compound 0.1%, 15 min at 36° C.
Source text: (§1) Mitrotiter Assay: A rapid microtiter plate assay was devised for examining lytA-dependent lysis of pneumococci by different detergents or surfactants. Two pairs of isogenic strains of S. pneumoniae were used in the assay; one member of each pair was wild type for the lytA gene while the other strain carried a deletion in the lytA gene Thus, if lysis were dependent on an active lytA function, that detergent would not lyse the mutant strains. The four strains, R6X, R6X ΔlytA, D39 and D39 ΔlytA, were cultivated in HySoy medium to approximately mid-log phase (OD600˜0.2-0.8; OD600=Optical Density at 600 nm). Cells were then centrifuged and cell pellets were resuspended in HySoy medium. To each well of the microtiter plate, 100 μL, of cell suspension was added, along with 10 μL, of detergent stocks or water as a control. After about 15 minutes at 36° C., the OD600 of the samples was measured with a Spectramax® spectrophotometer (Molecular Devices, Sunnyvale, Calif.).
(§2) Isogenic pairs of strains containing the lytA mutation were grown in a Hy-Soy based medium. The cells were harvested and dispensed into wells in a microttiter plate. The test compound was added and the culture was incubated. After 15 min at 36° C., the optical density (OD600) of each well was determined using a SpectraMax® plate reader (Molecular Devices, Sunnyvale, CALIF.)(see Tables 17 and 18, which summarize results from two separate tests for exemplary compounds).

R6X ΔlytA = assay: Microtiter plate lysis assay, strain R6X ΔlytA; type: cell-based, S. pneumoniae; conditions: compound 0.1%, 15 min at 36° C.
Source text: as §1, §2

R6X = assay: Microtiter plate lysis assay, strain R6X (wild type lytA); type: cell-based, S. pneumoniae; conditions: compound 0.1%, 15 min at 36° C.
Source text: as §1, §2

D39 = assay: Microtiter plate lysis assay, strain D39 (wild type lytA); type: cell-based, S. pneumoniae; conditions: compound 0.1%, 15 min at 36° C.
Protocol: as §1, with “Two pairs of isogenic strains of S. pneumoniae were used in the assay; one member of each pair was wild type for the lytA gene while the other strain carried a deletion in the lytA gene Thus, if lysis were dependent on an active lytA function, that detergent would not lyse the mutant strains.” left out
(§3) Isogenic pairs of strains containing the lytA mutation were grown in a Hy-Soy based medium. The cells were harvested and dispensed into wells in a microttiter plate. The test compound was added and the culture was incubated.

[1] = system: Streptococcus pneumoniae cells; assay: Screening for non-animal derived lytic agents (serotypes 1 and 6B PS release by SEC-HPLC; lytA mutants); type: cell-based; conditions: screening studies with serotypes 1 and 6B and lytA mutants
Protocol: Cell Lysis: Compounds to be tested were added to fermentation broth at a final concentration of 0.1 to 0.01% (v/v) and the solution was allowed to incubate at 37° C. for one hour. The solution was then stored at 2-8° C. overnight. The following morning the solution was centrifuged to remove all cell debris. The cell-free broth was analyzed by SEC-HPLC to determine the concentration of released polysaccharide. The lysis could be performed at any temperature between 2-37° C., preferably at a pH range of 6.0-7.5. The concentration of the detergent was typically between 0.05-0.2% depending on the particular detergent.
S. pneumoniae serotypes 1 and 6B were separately grown in Hy-Soy based media. The cultures were separately harvested and separately dispensed into tubes. […] After overnight incubation, the tubes were centrifuged and the PS content of the lysates for each serotype were determined by SEC-HPLC and compared to DOC.
as §3

[2] = system: Wild-type cells (R6X, D39); assay: Microtiter plate lysis assay, wild-type cells; type: cell-based, S. pneumoniae; conditions: freshly prepared or frozen and thawed cells; about 15 minutes at 36° C.
Source text: as §1

[3] = system: ΔlytA cells (R6X ΔlytA, D39 ΔlytA); assay: Microtiter plate lysis assay, ΔlytA cells; type: cell-based, S. pneumoniae; conditions: freshly prepared or frozen and thawed cells; about 15 minutes at 36° C.
Source text: as §1

C[C@H](CCC(=O)O)[C@H]1CC[C@H]2[C@@H]3CC[C@@H]4C[C@H](O)CC[C@]4(C)[C@H]3C[C@H](O)[C@]12C [Deoxycholic acid]
Change in OD600, D39 ΔlytA (D39 ΔlytA; Test 1): 47%
Change in OD600, D39 ΔlytA (D39 ΔlytA; Test 2): 41%
Change in OD600, R6X ΔlytA (R6X ΔlytA; Test 1): 34%
Change in OD600, R6X ΔlytA (R6X ΔlytA; Test 2): 20%
Change in OD600, R6X (R6X; Test 1): 100%
Change in OD600, R6X (R6X; Test 2): 103%
Change in OD600, D39 (D39; Test 1): 99%
Change in OD600, D39 (D39; Test 2): 101%

C[C@H](CCC(=O)NCCS(=O)(=O)O)[C@H]1CC[C@H]2[C@@H]3[C@H](O)C[C@@H]4C[C@H](O)CC[C@]4(C)[C@H]3CC[C@]12C [taurochenodeoxycholate]
Lytic activity compared to DOC (outcome of the screening studies) [1]: non-animal derived lytic agent alternatives to DOC

CCCCCCCCS(=O)(=O)O [Octanesulfonic acid]
Change in OD600, D39 ΔlytA (D39 ΔlytA; Test 1): 16%
Change in OD600, D39 ΔlytA (D39 ΔlytA; Test 2): −3%
Change in OD600, R6X ΔlytA (R6X ΔlytA; Test 1): 6%
Change in OD600, R6X ΔlytA (R6X ΔlytA; Test 2): 3%
Change in OD600, R6X (R6X; Test 1): 43%
Change in OD600, R6X (R6X; Test 2): 13%
Change in OD600, D39 (D39; Test 1): 34%
Change in OD600, D39 (D39; Test 2): 18%

C[C@H](CCC(=O)NCCS(=O)(=O)O)[C@H]1CC[C@H]2[C@@H]3CC[C@@H]4C[C@H](O)CC[C@]4(C)[C@H]3C[C@H](O)[C@]12C [taurodeoxycholate]
Lytic activity compared to DOC (outcome of the screening studies) [1]: non-animal derived lytic agent alternatives to DOC

CCCCCCC(=O)O [Heptanoic acid]
Change in OD600, D39 ΔlytA (D39 ΔlytA; Test 1): −30%
Change in OD600, R6X ΔlytA (R6X ΔlytA; Test 1): −57%
Change in OD600, R6X (R6X; Test 1): 25%
Change in OD600, D39 (D39; Test 1): 7%

CCCCCCCCCCCCOS(=O)(=O)[O-].[Na+] [SDS, sodium dodecyl sulfate]
Lysis of wild-type cells (OD600 versus medium blank) [2]: lysis had occurred
Change in OD600, D39 ΔlytA (D39 ΔlytA; Test 1): 36%
Change in OD600, D39 ΔlytA (D39 ΔlytA; Test 2): 16%
Lysis of ΔlytA cells [3]: did not lyse
Change in OD600, R6X ΔlytA (R6X ΔlytA; Test 1): 28%
Change in OD600, R6X ΔlytA (R6X ΔlytA; Test 2): −13%
Lytic activity compared to DOC (outcome of the screening studies) [1]: non-animal derived lytic agent alternatives to DOC
Change in OD600, R6X (R6X; Test 1): 99%
Change in OD600, R6X (R6X; Test 2): 102%
Change in OD600, D39 (D39; Test 1): 95%
Change in OD600, D39 (D39; Test 2): 100%

CCCCCCCCCCCCN(CCC(=O)O)CCC(=O)O [lauryl iminodipropionate]
Lytic activity compared to DOC (outcome of the screening studies) [1]: non-animal derived lytic agent alternatives to DOC

Triton ® X-100
Lysis of wild-type cells (OD600 versus medium blank) [2]: lysis had occurred
Change in OD600, D39 ΔlytA (D39 ΔlytA; Test 1): 30%
Change in OD600, D39 ΔlytA (D39 ΔlytA; Test 2): 4%
Lysis of ΔlytA cells [3]: did not lyse
Change in OD600, R6X ΔlytA (R6X ΔlytA; Test 1): 22%
Change in OD600, R6X ΔlytA (R6X ΔlytA; Test 2): −19%
Lytic activity compared to DOC (outcome of the screening studies) [1]: non-animal derived lytic agent alternatives to DOC
Change in OD600, R6X (R6X; Test 1): 91%
Change in OD600, R6X (R6X; Test 2): 101%
Change in OD600, D39 (D39; Test 1): 97%
Change in OD600, D39 (D39; Test 2): 100%

CCCCCCCCCCCCN(C)CC(=O)O [N-lauryl sarcosine]
Lysis of wild-type cells (OD600 versus medium blank) [2]: lysis had occurred
Change in OD600, D39 ΔlytA (D39 ΔlytA; Test 1): −44%
Change in OD600, D39 ΔlytA (D39 ΔlytA; Test 2): 14%
Lysis of ΔlytA cells [3]: did not lyse
Change in OD600, R6X ΔlytA (R6X ΔlytA; Test 1): −34%
Change in OD600, R6X ΔlytA (R6X ΔlytA; Test 2): −40%
Lytic activity compared to DOC (outcome of the screening studies) [1]: non-animal derived lytic agent alternatives to DOC
Change in OD600, R6X (R6X; Test 1): 100%
Change in OD600, R6X (R6X; Test 2): 102%
Change in OD600, D39 (D39; Test 1): 89%
Change in OD600, D39 (D39; Test 2): 101%

C[C@H](CCC(=O)O)[C@H]1CC[C@H]2[C@@H]3CC[C@@H]4C[C@H](O)CC[C@]4(C)[C@H]3CC[C@]12C [Lithocholic acid]
Change in OD600, D39 ΔlytA (D39 ΔlytA; Test 1): −2%
Change in OD600, R6X ΔlytA (R6X ΔlytA; Test 1): 16%
Change in OD600, R6X (R6X; Test 1): 20%
Change in OD600, D39 (D39; Test 1): 8%

C[C@H](CCC(=O)O)[C@H]1CC[C@H]2[C@@H]3[C@H](O)C[C@@H]4C[C@H](O)CC[C@]4(C)[C@H]3C[C@H](O)[C@]12C [cholate]
Lytic activity compared to DOC (outcome of the screening studies) [1]: non-animal derived lytic agent alternatives to DOC

C[C@H](CCC(=O)NCC(=O)O)[C@H]1CC[C@H]2[C@@H]3CC[C@@H]4C[C@H](O)CC[C@]4(C)[C@H]3C[C@H](O)[C@]12C [glycodeoxycholate]
Lytic activity compared to DOC (outcome of the screening studies) [1]: non-animal derived lytic agent alternatives to DOC

C[C@H](CCC(=O)O)[C@H]1CC[C@H]2[C@@H]3C[C@H](O)[C@@H]4C[C@H](O)CC[C@]4(C)[C@H]3CC[C@]12C [hyodeoxycholate]
Lytic activity compared to DOC (outcome of the screening studies) [1]: non-animal derived lytic agent alternatives to DOC

CCCCCCCCCCS(=O)(=O)O [decanesulfonic acid]
Lytic activity compared to DOC (outcome of the screening studies) [1]: non-animal derived lytic agent alternatives to DOC

C[C@H](CCC(=O)O)[C@H]1CC[C@H]2[C@@H]3[C@H](O)C[C@@H]4C[C@H](O)CC[C@]4(C)[C@H]3CC[C@]12C [chenodeoxycholate]
Lytic activity compared to DOC (outcome of the screening studies) [1]: non-animal derived lytic agent alternatives to DOC

CCCCCCCC/C=C\CCCCCCCC(=O)OCCOCC(OCCO)C1OCC(OCCO)C1OCCO (centres unmarked) [Tween 80]
Change in OD600, D39 ΔlytA (D39 ΔlytA; Test 1): 19%
Change in OD600, R6X ΔlytA (R6X ΔlytA; Test 1): 14%
Change in OD600, R6X (R6X; Test 1): 36%
Change in OD600, D39 (D39; Test 1): 20%

Tauroglycocholic acid
Change in OD600, D39 ΔlytA (D39 ΔlytA; Test 1): −20%
Change in OD600, R6X ΔlytA (R6X ΔlytA; Test 1): −16%
Change in OD600, R6X (R6X; Test 1): 51%
Change in OD600, D39 (D39; Test 1): 47%

tert-Octylphenoxy poly(oxyethylene)ethanol [Igepal® CA-630]
Lytic activity compared to DOC (outcome of the screening studies) [1]: non-animal derived lytic agent alternatives to DOC
